# Measurements as given in publication PMC6469940 (Science Advances, 2019).
# Biological target: T1, hM4D(Gi) (human M4 muscarinic receptor-based DREADD) (Homo sapiens, UniProt P08173, A203G/Y113C)
# T1 construct: gene CHRM4; hM4D(Gi) plasmid (Addgene 45548)
# T1 sequence (P08173 1-479 Y113C/A203G): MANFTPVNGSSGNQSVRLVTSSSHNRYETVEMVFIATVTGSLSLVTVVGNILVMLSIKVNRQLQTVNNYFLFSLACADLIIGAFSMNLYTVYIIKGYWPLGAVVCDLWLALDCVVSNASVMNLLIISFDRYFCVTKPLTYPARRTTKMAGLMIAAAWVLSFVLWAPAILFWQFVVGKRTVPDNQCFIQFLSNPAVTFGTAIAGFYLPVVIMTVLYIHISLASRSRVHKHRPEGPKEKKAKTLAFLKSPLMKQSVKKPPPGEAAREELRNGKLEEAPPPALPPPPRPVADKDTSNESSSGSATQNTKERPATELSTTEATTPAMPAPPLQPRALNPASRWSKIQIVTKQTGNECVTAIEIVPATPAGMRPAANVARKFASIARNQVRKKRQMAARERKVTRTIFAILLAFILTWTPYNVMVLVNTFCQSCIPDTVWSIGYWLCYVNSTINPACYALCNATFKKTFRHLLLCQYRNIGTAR
# Assay: whole-cell patch clamp of Kir3.[…] current potentiation in HEK cells transfected with hM4D(Gi)
# Format: cell-based
row,SMILES,EC50
1,"c1ccc2c(c1)N=C(N1CCNCC1)c1ccccc1N2 [C21, compound 21]",20 ± 4 nM
2,"CN1CCN(C2=Nc3ccccc3Cc3ccccc32)CC1 [PLP, perlapine]",40 ± 10 nM
